“Also recorded” adds a separate entry of the source.
Legend:
normotensive Wistar rats = assay type: in vivo, rat; settings: 10 μmoles/Kg of body weight i.v.; 6 hours
Experimental: In vivo studies on the effect of peptides of the present invention were performed on adult male spontaneously hypertensive rats, and normotensive Wistar rats (Rattus novergicus) weighing 250 to 350 g. Animals had free access to chow (Nuvilab) and water, and were submitted to a light-dark cycle of 12 hours each. Procedures involving animals and their care were conducted according to Giles [Giles A. R. Guidelines for the use of animals in biomedical research. Thromb. Haemost. 58: 1078-1084, 1987].
Before drug administration, cardiovascular parameters of the rats were monitored for 40 minutes. Intravenous (I.V.) injection of Ang I (100 ng) was performed in bolus in a total volume of 0.1 mL. 60 minutes after the start of register, 71 nmoles/Kg body weight of peptides SEQ ID NO 8 or SEQ ID NO 4, or captopril were administered I.V. in a total volume of 0.5 mL of 0.9% NaCl solution. […] Arterial blood pressure and heart frequency were continuously monitored for 360 minutes.
Adult male Wistar normotensive rats, weighing between 250 and 350 g, were used in the experimental evaluation of the hypotensive effect of SEQ ID NO 8, as described in Example 12. An i.v. dose of 10 μmoles/Kg of body weight of peptide SEQ ID NO 8 was injected, and arterial blood pressure was monitored for 6 hours (results not shown).

[1] = Determination of Z-pro metabolites in mice urine; assay type: in vivo, mouse; settings: mice; 0.91 mg/Kg intraperitoneally; urine collected after 24 hours; mass spectrometry; 0.91 mg/kg
Experimental: In vivo hydrolysis of peptides SEQ ID NO 1, SEQ ID NO 4, SEQ ID NO 5, SEQ ID NO 8, and SEQ ID NO 15 was investigated in Swiss male mice weighing approximately 22-25 g, which had free access to food and water, and were kept under a light-dark cycle of 12 hour periods.
Groups of 10 mice were treated intraperitoneally with 0.91 mg/Kg of each proline rich oligopeptide per animal, diluted in 200 μl saline. Treated and control animals (not treated) were kept in metabolic cages, and their urine was collected after 24 hours. The urine was pre-purified in a reverse phase Sep-Pak C18 micro column (Waters), which had been previously equilibrated with solvent A (H2O/0.1% TFA). Samples were eluted with 60% solvent B (90% acetonitrile/10% solvent A), lyophilized, and resuspended in 1 ml deionized water to be centrifuged at 14.000 rpm for 5 minutes. The supernatant (500 μl) was fractionated in an analytic HPLC system. The gradient was 5-65% solvent B for 30 minutes, using a flow rate of 1 ml/min and monitoring at 214 nm. Fractions were lyophilized and ressuspended in acetonitrile/H2O (1:1), containing 0.2% formic acid, and were analyzed by mass spectrometry (Q-TOF-Pro). Urine fractions from control and treated animals were compared to determine the presence of metabolites originated from the peptides being tested.

[2] = target: T1, argininosuccinate synthase (AsS) (Mus musculus, UniProt P16460); experiment: Potentiation of argininosuccinate synthase activity (phosphate generated from ATP); assay type: biochemical
T1 construct: Cytosolic and membrane fractions of the renal extract (100 mg/ml total protein) were applied to separate columns; from tissue; host or cells: Balb-c mouse kidney, cytosolic and membrane fractions
T1 sequence (P16460 1-412): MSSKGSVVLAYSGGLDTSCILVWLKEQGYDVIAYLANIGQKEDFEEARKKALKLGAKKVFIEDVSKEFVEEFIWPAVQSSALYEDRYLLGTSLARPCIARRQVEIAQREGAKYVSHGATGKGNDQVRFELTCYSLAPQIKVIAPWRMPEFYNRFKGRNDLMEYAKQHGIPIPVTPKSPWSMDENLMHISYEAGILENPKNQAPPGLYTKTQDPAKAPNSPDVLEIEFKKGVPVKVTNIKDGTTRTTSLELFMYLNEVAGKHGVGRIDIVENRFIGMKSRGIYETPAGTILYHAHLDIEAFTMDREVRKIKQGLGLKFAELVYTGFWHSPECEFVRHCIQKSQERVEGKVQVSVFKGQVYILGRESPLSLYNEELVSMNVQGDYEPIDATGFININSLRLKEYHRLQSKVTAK
Experimental: Activation of the AsS enzyme of Example 3 by peptide SEQ ID NO 8 was quantified in vitro according to Hao et al. [Hao G., Xie L., Gross S. S. Argininosuccinate synthetase is reversibly inactivated by S-nitrosylation in vitro and in vivo. J. Biol. Chem., 279:36192-36200 (2004)]. This method is based on measuring the quantity of phosphate generated from ATP, when pyrophosphatase is added to the reaction medium. Since the activity of the pyrophosphatase relates directly to the enzymatic activity of the AsS, the quantity of generated pyrophosphate is a direct measurement of the AsS activity.
The AsS enzyme (1 μg) was added to the reaction mixture containing 20 mM Tris-HCl, pH 7.8, 2 mM ATP, 2 mM citrulline, 2 mM aspartate, 6 mM MgCl2, 20 mM KCl, and 0.2 units of pyrophosphatase in a final volume of 200 μL in 96 well microplates. Increasing quantities of the SEQ ID NO 8 peptide (0.5, 1 to 8 μM) were added, and samples were incubated at 37° C. for 60 minutes. The reaction was interrupted by the addition of 200 μL of ammonium molybdate buffer (10 mM ascorbic acid, 2.5 mM ammonium molybdate, 2% sulphuric acid). Resulting phosphate was determined in the samples by spectrophotometry (absorbance at 650 nm), using a standard curve obtained with inorganic phosphate.
The production rate of phosphate (enzymatic activity of the AsS) was activated up to approximately 2.5 fold upon addition of 2 μM peptide SEQ ID NO 8. […] Accessibility of endothelial and inducible nitric oxide synthase to the intracellular citrulline-arginine regeneration pathway. Biochem. Pharmacol. 69: 97-104, 2005].

<ENWPHPQIPP [SEQ ID NO 8]
hypotensive effect in normotensive rats (normotensive Wistar rats): no significant hypotensive effect | Metabolites in the urine [1]: <ENWPHPQIPP; also recorded: <ENWPHPQIP | activation of the production rate of phosphate (enzymatic activity of the AsS) ([2]; 2 μM peptide, AsS 1-8 μg): approximately 2.5 fold | activation of AsS ([2]; maximum activation): 70-80%
